# From patent publication US8530426B2, “Cosmetic or dermopharmaceutical composition comprising at least one UDP glucuronosyl transferase (UGT) enzymes inducer” (Sederma SAS, priority 2004, dated 2013)
# What was measured:
# Human keratinocytes = test: PGE2 release post-UVB irradiation, keratinocytes (ELISA); format: cell-based; details: for Change in PGE2 release post-UVB irradiation, keratinocytes: UVB 30 mJ/cm2, 24 hours
# Protocol: (§1) Human keratinocytes and fibroblasts were cultured in an appropriate medium in the presence of various concentrations of chrysin for 24 hours. The cells were then transferred to a product-free medium and exposed to a pro-inflammatory dose of UVB radiation at a dosage of 35 mJ/cm2 for fibroblasts and 30 mJ/cm2 for keratinocytes. Following irradiation, the cells were then post-incubated either in medium alone or in medium containing various concentrations of chrysin vs. a positive control (acetylsalicylic acid) for 24 hours. PGE2 release into the culture medium after 24 hours was determined using an ELISA method.
# fibroblasts = test: PGE2 release post-UVB irradiation, fibroblasts (ELISA); format: cell-based, Human; details: for Change in PGE2 release post-UVB irradiation, fibroblasts: UVB 35 mJ/cm2, 24 hours
# Protocol: as §1
# UGT1A1 mRNA = test: Induction of UGT1A1 mRNA by chrysin, RT-PCR in hepG2 cells; format: cell-based, Human; details: 3 days
# Protocol: Human hepG2 cells were cultured in an appropriate medium (Williams medium) in the presence or absence of the inductor, chrysin, for 3 days At the end of that period, cell lysis was induced, mRNA extracted and RT-PCR conducted
# Quantification of UGT1A1 mRNA: The study was conducted after 3 days of incubation in the presence of chrysin. The values, shown in Table 1, obtained were normalized on the GADPH internal standard and then expressed as percentages relative to the reference.
# [1] = positive control, concentration not given
SMILES,"Change in PGE2 release post-UVB irradiation, keratinocytes (Human keratinocytes; 2 μM)","Change in PGE2 release post-UVB irradiation, keratinocytes (Human keratinocytes; 3.9 μM)","Change in PGE2 release post-UVB irradiation, keratinocytes (Human keratinocytes; 7.8 μM)","Change in PGE2 release post-UVB irradiation, keratinocytes (Human keratinocytes; 11.8 μM)","inhibition of keratinocytic PGE2 (Human keratinocytes; maximum over the chrysin concentrations, without a dose effect)","Change in PGE2 release post-UVB irradiation, fibroblasts (fibroblasts; 2 μM)","Change in PGE2 release post-UVB irradiation, fibroblasts (fibroblasts; 3.9 μM)","Change in PGE2 release post-UVB irradiation, fibroblasts (fibroblasts; 7.8 μM)","Change in PGE2 release post-UVB irradiation, fibroblasts (fibroblasts; 11.8 μM)",UGT1A1 Induction (UGT1A1 mRNA; chrysin 7.8 μM),"UGT1A1 mRNA, normalized on GADPH, percentage relative to the reference (UGT1A1 mRNA; chrysin 7.8 μM)",UGT1A1 Induction (UGT1A1 mRNA; chrysin 11.8 μM),"UGT1A1 mRNA, normalized on GADPH, percentage relative to the reference (UGT1A1 mRNA; chrysin 11.8 μM)",increase in UGT1A1 mRNA (in words) (UGT1A1 mRNA; dose effect),"Change in PGE2 release post-UVB irradiation, keratinocytes (Human keratinocytes; [1])","inhibition of PGE2, keratinocytes (Human keratinocytes; [1])","Change in PGE2 release post-UVB irradiation, fibroblasts (fibroblasts; [1])","inhibition of PGE2, fibroblasts (fibroblasts; [1])"
"O=c1cc(-c2ccccc2)oc2cc(O)cc(O)c12 [Chrysin, 5,7-dihydroxyflavone]",−75%,−84%,−85%,−86%,up to 85%,−76%,−85%,−89%,−92%,×2.5,247%,×6,600%,very marked increase,–,–,–,–
"CC(=O)Oc1ccccc1C(=O)O [acetylsalicylic acid, reference compound]",–,–,–,–,–,–,–,–,–,–,–,–,–,–,−92%,greater than 90%,−95%,greater than 90%
